Measured values published in ChEMBL document CHEMBL1201862, “PubChem BioAssay data set” (2004).
The source made the active and inactive calls.

Key:
Mu-type opioid receptor = Mu-type opioid receptor (Homo sapiens, UniProt P35372); format: functional, cell-based;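 also: U2OS cells with beta-arrestin recruitment to OPRM1 by beta-gal complementation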
[1] = biological target: 5-hydroxytryptamine receptor 2A (Mus musculus, UniProt P35363); format: functional, cell-based;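 also: CHO-K1 cells with tagged receptor and beta-arrestin; agonist potency measured as compound-induced activation of the receptor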
Chain of 5-hydroxytryptamine receptor 2A (P35363 whole entry): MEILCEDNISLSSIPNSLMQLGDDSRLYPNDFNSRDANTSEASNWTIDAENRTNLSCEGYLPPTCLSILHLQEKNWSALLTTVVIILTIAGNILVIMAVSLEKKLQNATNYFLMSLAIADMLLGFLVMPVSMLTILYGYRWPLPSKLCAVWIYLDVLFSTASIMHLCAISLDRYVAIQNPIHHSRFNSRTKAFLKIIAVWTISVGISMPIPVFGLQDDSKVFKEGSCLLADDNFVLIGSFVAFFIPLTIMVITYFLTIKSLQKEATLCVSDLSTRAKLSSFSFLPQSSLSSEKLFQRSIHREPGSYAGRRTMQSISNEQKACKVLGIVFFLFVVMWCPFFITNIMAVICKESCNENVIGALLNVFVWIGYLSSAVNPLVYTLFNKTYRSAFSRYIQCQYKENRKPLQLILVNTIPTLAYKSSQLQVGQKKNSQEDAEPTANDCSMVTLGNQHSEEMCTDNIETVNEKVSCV

[2] = biological target: FAD-linked sulfhydryl oxidase ALR (Homo sapiens, UniProt P55789); assay: inhibitors of human ALR sulfhydryl oxidase, dose response, biochemical, H2O2 detection, luminescence, cherry-pick (AID 493248)
Chain of FAD-linked sulfhydryl oxidase ALR (P55789 whole entry): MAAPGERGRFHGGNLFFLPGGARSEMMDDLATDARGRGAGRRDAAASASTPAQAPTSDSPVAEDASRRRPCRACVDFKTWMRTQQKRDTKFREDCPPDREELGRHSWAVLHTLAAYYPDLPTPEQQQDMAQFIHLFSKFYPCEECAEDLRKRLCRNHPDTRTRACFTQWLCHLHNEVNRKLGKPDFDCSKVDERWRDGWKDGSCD

[3] = biological target: Histone-lysine N-methyltransferase NSD2 (Homo sapiens, UniProt O96028); format: biochemical
Chain of Histone-lysine N-methyltransferase NSD2 (O96028 whole entry): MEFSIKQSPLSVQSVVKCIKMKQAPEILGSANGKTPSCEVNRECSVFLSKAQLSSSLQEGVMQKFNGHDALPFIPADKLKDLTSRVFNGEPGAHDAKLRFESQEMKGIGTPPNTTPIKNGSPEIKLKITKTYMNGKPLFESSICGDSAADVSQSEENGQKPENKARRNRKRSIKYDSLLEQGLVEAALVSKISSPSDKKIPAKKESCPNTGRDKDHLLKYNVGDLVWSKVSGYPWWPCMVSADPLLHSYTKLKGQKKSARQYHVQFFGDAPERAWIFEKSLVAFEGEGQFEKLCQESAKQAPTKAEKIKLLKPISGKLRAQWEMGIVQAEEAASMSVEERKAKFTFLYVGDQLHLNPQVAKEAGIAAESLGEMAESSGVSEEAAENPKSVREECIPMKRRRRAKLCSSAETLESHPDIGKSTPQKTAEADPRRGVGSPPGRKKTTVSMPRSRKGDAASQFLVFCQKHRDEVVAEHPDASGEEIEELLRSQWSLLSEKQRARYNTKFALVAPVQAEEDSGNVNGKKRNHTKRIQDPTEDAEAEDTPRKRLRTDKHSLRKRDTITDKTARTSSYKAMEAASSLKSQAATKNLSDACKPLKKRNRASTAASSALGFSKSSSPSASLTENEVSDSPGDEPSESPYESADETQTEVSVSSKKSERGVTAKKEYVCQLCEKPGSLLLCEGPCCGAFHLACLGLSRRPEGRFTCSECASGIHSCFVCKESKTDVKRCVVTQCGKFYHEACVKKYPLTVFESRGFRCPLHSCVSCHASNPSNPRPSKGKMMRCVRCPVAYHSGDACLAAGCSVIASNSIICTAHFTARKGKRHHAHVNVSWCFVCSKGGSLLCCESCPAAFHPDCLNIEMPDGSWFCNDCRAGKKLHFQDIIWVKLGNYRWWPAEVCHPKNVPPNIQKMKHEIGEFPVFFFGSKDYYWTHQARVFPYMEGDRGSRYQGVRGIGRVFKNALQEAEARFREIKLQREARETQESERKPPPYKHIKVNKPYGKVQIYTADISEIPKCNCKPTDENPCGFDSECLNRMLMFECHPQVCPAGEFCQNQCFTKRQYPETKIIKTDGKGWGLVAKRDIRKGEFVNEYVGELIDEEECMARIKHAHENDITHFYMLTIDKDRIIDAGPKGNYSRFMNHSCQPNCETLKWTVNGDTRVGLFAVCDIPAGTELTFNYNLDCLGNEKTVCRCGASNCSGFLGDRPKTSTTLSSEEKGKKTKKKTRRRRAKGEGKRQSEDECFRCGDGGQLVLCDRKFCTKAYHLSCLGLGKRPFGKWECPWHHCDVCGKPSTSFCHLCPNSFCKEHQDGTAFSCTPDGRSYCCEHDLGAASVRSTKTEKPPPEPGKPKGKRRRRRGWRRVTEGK

[4] = inhibitors of intracellular T. cruzi replication, confirmation, NIH3T3 host cells, beta-gal luminescence (AID 2044); format: functional, cell-based;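 also: intracellular parasites grown in NIH/3T3 mouse fibroblasts as host cells; luminescent beta-galactosidase reporter signal from transgenic T. cruzi replicating inside host cells; inhibitors lower the luminescence signal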
Beta-galactosidase = Beta-galactosidase (Escherichia coli, UniProt Q8VNN2); assay: Dose response counterscreen for EBI2 assay utilizing the enzyme, b-galactosidase.; format: functional
Chain of Beta-galactosidase (Q8VNN2 whole entry): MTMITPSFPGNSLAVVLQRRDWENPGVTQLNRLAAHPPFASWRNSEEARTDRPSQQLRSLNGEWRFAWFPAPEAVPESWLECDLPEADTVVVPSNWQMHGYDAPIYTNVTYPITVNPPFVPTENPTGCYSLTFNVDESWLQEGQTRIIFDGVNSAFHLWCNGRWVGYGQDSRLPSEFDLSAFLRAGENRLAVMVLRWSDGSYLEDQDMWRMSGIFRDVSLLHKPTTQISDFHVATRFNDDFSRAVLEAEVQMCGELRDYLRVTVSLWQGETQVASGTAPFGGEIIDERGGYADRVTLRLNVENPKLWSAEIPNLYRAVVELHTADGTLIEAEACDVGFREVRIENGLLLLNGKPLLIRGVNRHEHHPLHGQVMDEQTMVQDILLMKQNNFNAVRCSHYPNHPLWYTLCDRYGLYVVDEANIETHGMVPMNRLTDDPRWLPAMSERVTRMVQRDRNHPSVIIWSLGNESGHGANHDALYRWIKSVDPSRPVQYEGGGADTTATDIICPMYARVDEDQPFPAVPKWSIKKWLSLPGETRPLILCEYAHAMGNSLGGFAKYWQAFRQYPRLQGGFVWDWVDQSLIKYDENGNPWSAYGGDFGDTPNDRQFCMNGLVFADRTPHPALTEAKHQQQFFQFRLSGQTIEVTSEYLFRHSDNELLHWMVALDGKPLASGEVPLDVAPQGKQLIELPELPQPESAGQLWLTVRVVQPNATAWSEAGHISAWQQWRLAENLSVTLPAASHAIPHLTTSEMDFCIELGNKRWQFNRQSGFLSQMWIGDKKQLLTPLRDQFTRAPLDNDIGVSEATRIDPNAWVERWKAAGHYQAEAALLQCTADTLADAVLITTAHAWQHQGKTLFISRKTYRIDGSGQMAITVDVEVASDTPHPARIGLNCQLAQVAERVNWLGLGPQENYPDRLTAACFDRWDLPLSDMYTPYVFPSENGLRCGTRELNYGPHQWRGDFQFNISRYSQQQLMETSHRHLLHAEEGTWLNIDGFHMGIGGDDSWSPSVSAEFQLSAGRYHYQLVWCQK

[5] = cytotoxicity toward NIH3T3 fibroblasts, dose response, counter-screen, cell-based, ATP luminescence, mouse fibroblasts (AID 2010); format: functional;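 also: cells exposed to compound for about 90 hours before reading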
fMet-Leu-Phe receptor = fMet-Leu-Phe receptor (Homo sapiens, UniProt P21462); assay: FPR ligands, dose response (AID 519); format: functional
Chain of fMet-Leu-Phe receptor (P21462 whole entry): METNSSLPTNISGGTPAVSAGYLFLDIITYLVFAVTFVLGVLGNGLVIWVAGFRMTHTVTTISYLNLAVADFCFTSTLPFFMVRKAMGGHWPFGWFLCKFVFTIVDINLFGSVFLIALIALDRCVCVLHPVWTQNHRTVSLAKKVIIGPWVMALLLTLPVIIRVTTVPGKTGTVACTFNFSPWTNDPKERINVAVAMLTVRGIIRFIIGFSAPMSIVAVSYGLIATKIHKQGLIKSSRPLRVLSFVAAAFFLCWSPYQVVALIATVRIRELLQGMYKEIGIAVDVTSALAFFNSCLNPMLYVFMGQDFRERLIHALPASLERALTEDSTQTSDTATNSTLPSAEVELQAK

[6] = biological target: T1, Nuclear receptor subfamily 0 group B member 1 (Homo sapiens, UniProt P51843); format: functional, cell-based;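 also: HEK293T cells transfected with SF-1 and DAX-1 plus StAR promoter luciferase reporter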
T1 sequence (P51843 whole entry): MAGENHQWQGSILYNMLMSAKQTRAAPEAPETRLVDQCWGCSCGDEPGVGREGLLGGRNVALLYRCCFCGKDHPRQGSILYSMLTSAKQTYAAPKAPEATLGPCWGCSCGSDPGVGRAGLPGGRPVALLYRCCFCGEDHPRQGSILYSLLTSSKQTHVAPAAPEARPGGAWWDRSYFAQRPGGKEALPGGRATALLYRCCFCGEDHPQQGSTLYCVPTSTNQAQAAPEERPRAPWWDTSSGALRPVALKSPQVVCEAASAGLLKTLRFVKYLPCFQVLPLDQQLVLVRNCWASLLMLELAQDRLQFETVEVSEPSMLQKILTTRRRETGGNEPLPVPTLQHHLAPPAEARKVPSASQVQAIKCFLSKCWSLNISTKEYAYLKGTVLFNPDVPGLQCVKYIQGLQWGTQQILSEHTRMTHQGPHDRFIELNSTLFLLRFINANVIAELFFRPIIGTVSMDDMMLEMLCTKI

H9c2 = assay: cells; format: functional, cell-based; settings: Rattus norvegicus, H9c2, Myocardium
cells = format: functional, cell-based
[7] = biological target: DNA repair protein RAD52 homolog (Homo sapiens, UniProt P43351); format: functional, biochemical
Chain of DNA repair protein RAD52 homolog (P43351 whole entry, the tested form may be a part): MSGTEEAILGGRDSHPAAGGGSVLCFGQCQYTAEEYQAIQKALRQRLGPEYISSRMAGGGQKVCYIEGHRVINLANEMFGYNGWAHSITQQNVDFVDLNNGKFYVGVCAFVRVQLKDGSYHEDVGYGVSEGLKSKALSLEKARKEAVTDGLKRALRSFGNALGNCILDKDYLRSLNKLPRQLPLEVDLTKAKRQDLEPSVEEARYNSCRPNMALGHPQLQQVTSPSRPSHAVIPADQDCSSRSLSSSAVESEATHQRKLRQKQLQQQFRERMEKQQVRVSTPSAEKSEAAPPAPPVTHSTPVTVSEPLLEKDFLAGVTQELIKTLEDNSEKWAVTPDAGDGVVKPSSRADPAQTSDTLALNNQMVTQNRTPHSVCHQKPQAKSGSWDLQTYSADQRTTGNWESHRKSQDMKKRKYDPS

[8] = off-target signal loss in HeLa-CEM21 co-culture – HeLa F-luc CTL cells, cherry-picked, counter-screen for HIV-1 Env fusion inhibitor project, dose response (AID 652040); format: functional, cell-based;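 also: potency for signal decrease marking cytotoxic or nonspecific inhibition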
[9] = CEM21 lymphoblast cell cytotoxicity, dose response, cytotoxicity control for viral fusion inhibitor project, CellTiter-Glo luminescence, cherry-picked (AID 652042); format: functional, cell-based;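 also: potency for signal decrease meaning cytotoxicity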
[10] = ZM109 Env clade C HIV-1 fusion inhibitors, dose response, HeLa effector, CEM target cells, luciferase, cherry-pick (AID 652058); format: functional, cell-based
[11] = inhibitors of clade B AD8 Env fusion, dose response, cell-based, cherry-pick (AID 652062); format: functional;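 also: luciferase signal from cell-cell fusion driven by HIV-1 clade B AD8 Env; potency is for inhibitors of fusion seen as a drop in luminescence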
[12] = inhibitors of HIV Env-driven cell fusion, dose response, cherry-pick (AID 652057); format: functional, cell-based
[13] = HEK293 Cytotoxicity Assay Measured in Cell-Based System Using Plate Reader - 7071-01_Inhibitor_Dose_CherryPick_Activity_Set2.; format: functional
HEK293 [14] = assay: HEK293T cell cytotoxicity, dose response, cytotoxicity control, ATP luminescence, cherry-pick samples (AID 687005); format: functional, cell-based; settings: Homo sapiens;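 also: cells exposed to compound for 48 hours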
Paired box protein Pax-8 = Paired box protein Pax-8 (Homo sapiens, UniProt Q06710); assay: inhibitors of PAX8-driven TPO luciferase reporter, dose response, RMG-I cells, cherry-pick (AID 687027); format: functional, cell-based;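 also: luciferase reporter driven by Pax8 target thyroperoxidase promoter measured by SteadyGlo luminescence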
Chain of Paired box protein Pax-8 (Q06710 whole entry): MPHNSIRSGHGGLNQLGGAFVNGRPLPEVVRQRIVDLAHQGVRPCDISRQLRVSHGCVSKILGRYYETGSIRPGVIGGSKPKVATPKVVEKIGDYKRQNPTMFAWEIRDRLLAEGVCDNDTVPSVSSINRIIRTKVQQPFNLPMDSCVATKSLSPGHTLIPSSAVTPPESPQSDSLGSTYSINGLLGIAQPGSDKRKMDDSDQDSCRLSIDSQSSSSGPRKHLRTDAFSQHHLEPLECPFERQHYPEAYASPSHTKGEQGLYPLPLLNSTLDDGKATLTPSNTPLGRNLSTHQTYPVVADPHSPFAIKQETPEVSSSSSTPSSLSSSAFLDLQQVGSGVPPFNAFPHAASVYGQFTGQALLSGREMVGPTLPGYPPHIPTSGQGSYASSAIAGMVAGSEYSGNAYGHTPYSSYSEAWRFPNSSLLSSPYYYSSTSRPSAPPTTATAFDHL

[15] = NIH:OVCAR-3 ovarian cancer cell cytotoxicity, dose response, PAX8 inhibitor project, plate reader, dry powder samples (AID 743044); format: functional, cell-based
[16] = IGROV1 ovarian cancer cell cytotoxicity, dose response, PAX8 inhibitor project, plate reader, dry powder samples (AID 743043); format: functional, cell-based; settings: IGROV-1
[17] = HEK293T cytotoxicity, dose response, cytotoxicity control for miR-122 modulator project, cell-based, inhibitor set, cherry-pick, set 2 (AID 720697); format: functional
[18] = HEK293T cytotoxicity, dose response, cytotoxicity control for miR-122 modulator project, cell-based, activator set, cherry-pick (AID 720690); format: functional;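 also: HEK293T human cells scored for general mammalian cytotoxicity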
BJ [19] = assay: cytotoxicity toward BJ-TERT fibroblasts, dose response, cell-based, RAS-independent, luminescence (AID 1933); format: functional; settings: Homo sapiens
[20] = HepG2 cell cytotoxicity, dose response, cytotoxicity control for Shn3 inhibitor project, CellTiter-Glo, cherry-picked (AID 624134); format: functional, cell-based
[21] = MC4R antagonists, dose response, counter-screen for LGR2 antagonist project, cell-based, plate reader, cherry pick (AID 743444); format: functional;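 also: transfected HEK 293 cells stimulated with alpha-MSH peptide; potency of inhibitors of the alpha-MSH evoked signal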
[22] = cytotoxicity toward DRD oncogenic fibroblasts, dose response, cell-based, non-viral oncogenic, luminescence (AID 1934); format: functional; settings: Homo sapiens
[23] = miR-122 activators in hepatoma reporter cells, dose response, cell-based, Huh7 psiCHECK-miR122, Renilla luciferase, cherry-picked (AID 651956); format: functional;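 also: huh7 hepatoma cells stably carrying a psiCHECK-2 miR-122 sensor plasmid; renilla luciferase signal reporting endogenous miR-122 activity after 48 h compound exposure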
[24] = HepG2 cell cytotoxicity, dose response, cytotoxicity control, plate reader, cherry-pick, antagonist series (AID 743416); format: functional, cell-based
[25] = control 3'UTR Renilla luciferase suppression, dose response, counter-screen for Shn3 inhibitor project, cell-based, Clone20-Shn3RL, cherry-picked (AID 624133); format: functional
BJ [26] = assay: cytotoxicity toward BJ-TERT-LT-ST fibroblasts, dose response, cell-based, RAS-independent, luminescence (AID 1935); format: functional; settings: Homo sapiens;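 also: BJ fibroblasts immortalized with TERT plus LT and ST oncogenes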
[27] = Luminescence Cell-Based Dose Retest to Confirm Inhibitors of Cancer Stem Cells. [Related pubchem assays (depositor defined):AID2717, AID2721]; format: functional; settings: Homo sapiens
[28] = A549 cell cytotoxicity, dose response, cytotoxicity control, plate reader, cherry-pick, antagonist series (AID 743412); format: functional, cell-based
[29] = non-specific cell cytotoxicity, dose response, cytotoxicity control for PAX8 inhibitor project, plate reader, dry powder samples (AID 743021); format: functional, cell-based
BJ [30] = assay: cytotoxicity toward Ras-transformed BJeLR fibroblasts, dose response, cell-based, alamar blue fluorescence, cherrypicked samples (AID 2631); format: functional; settings: Homo sapiens;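 also: confirmatory dose-response assay in RAS-dependent BJ fibroblasts engineered with TERT, LT and ST, with cytotoxicity read by fluorescence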
[31] = Shn3 3'UTR reporter inhibitors, dose response, cell-based, Clone20 osteoblasts, firefly luciferase, cherry-picked (AID 624132); format: functional;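 also: firefly luciferase luminescence from reporter carrying the Shn3 3'UTR in osteoblasts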
[32] = Fluorescence-based cell-based high throughput dose response assay for inhibitors of the interaction of nucleotide-binding oligomerization domain containing 2 (NOD2) and the receptor-interacting serine-threonine kinase 2 (RIPK2).; format: functional; settings: Homo sapiens
[33] = LGR2 antagonists, dose response, cell-based, HEK293, CRE-luciferase reporter, cherry pick, set 2 (AID 743343); format: functional;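 also: transfected cells were stimulated with diluted bursicon conditioned medium after compound addition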
HEK293 [34] = assay: inhibitors of LMP1-driven NF-kB reporter, dose response, cell-based, HEK293, luciferase, cherry-pick (AID 588343); format: functional; settings: Homo sapiens
[35] = HEK293 cell cytotoxicity, dose response, cytotoxicity control, plate reader, cherry-picked samples (AID 743446); format: functional, cell-based
BJ [36] = assay: cells; format: functional, cell-based; settings: Homo sapiens
[37] = Concentration-dependent survival of SW480 colon cancer line, luminescence detection with CellTiter-Glo, half-maximal inhibitory concentration (AID 1117338); format: functional
[38] = SNU-C1 cell viability reduction, dose response, CellTiter-Glo luminescence (AID 1117323); format: functional, cell-based
[39] = HeLa 4N DNA content increase, dose response, cell-based, IC50 (AID 1117351); format: functional
[40] = cytotoxicity toward HCT116 cells – cell-based, CellTiter-Glo luminescence, IC50, dose response (AID 1117332); format: functional; settings: HCT-116
[41] = cytotoxicity toward HT-29 cells – cell-based, CellTiter-Glo luminescence, IC50, dose response (AID 1117330); format: functional
[42] = HeLa 2N DNA content increase, dose response, cell-based, IC50 (AID 1117349); format: functional
[43] = cytotoxicity toward Colo320 cells – cell-based, CellTiter-Glo luminescence, IC50, dose response (AID 1117334); format: functional; settings: COLO 320
[44] = RKO cell viability reduction, dose response, CellTiter-Glo luminescence (AID 1117322); format: functional

Chain of Mu-type opioid receptor (P35372 whole entry): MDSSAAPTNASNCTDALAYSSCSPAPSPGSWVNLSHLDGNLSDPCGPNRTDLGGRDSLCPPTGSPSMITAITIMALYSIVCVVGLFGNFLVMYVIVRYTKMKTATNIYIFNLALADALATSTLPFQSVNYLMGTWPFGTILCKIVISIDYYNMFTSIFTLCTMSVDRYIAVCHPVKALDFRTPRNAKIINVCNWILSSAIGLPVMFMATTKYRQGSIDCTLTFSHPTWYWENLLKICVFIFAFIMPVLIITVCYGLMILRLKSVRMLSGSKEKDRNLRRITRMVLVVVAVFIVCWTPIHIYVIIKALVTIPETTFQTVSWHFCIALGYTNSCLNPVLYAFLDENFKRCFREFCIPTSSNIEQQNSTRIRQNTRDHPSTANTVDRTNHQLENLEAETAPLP

## COc1cc(Br)cc(CN2CCN(c3ncccn3)CC2)c1O
Mu-type opioid receptor
  EC50: 92.5 µM (inactive)
[1]
  EC50: 1.02 µM (active)
[2]
  AC50: > 100 µM (inactive)

## Nc1ccc2nn(-c3cc([N+](=O)[O-])ccc3O)nc2c1
[3]
  AC50: > 20 µM (inactive)

## COc1cccc(-c2cc(C(=O)N3CCN(C(c4ccccc4)c4ccccc4)CC3)no2)c1
[4]
  EC50: 1.61 µM (active)
Beta-galactosidase
  IC50: > 80 µM (inactive)
[5]
  EC50: 25.2 µM (active)

## CC(C)OC(=O)c1nnn(-c2nonc2N)c1CN1CCc2ccccc2C1
fMet-Leu-Phe receptor
  Ki: 50 µM (inactive)

## COc1cc(/C=C(\C#N)C(=O)Nc2ccccc2F)ccc1OCCN1CCOCC1
[6]
  IC50: > 67.5 µM (inactive)
H9c2
  IC50: 8.88 µM (active)
cells
  IC50: > 67.5 µM (inactive)

## COc1ccc(CN2CCN(C(=O)c3cccs3)CC2)cc1
Mu-type opioid receptor
  EC50: 92.5 µM (inactive)
[1]
  EC50: 76.1 µM (inactive)

## CN(C)CCCNc1ncnc2oc(-c3ccccc3)c(-c3ccccc3)c12
[7]
  AC50: 21.7 µM (active)

## O=C(C1=C(O)C(=O)N(Cc2ccccc2)C1c1ccco1)c1ccco1 (stereo not given)
fMet-Leu-Phe receptor
  Ki: 12.4 µM (active)

## COc1ccc(OCC(=O)N2CCN(S(=O)(=O)c3ccc(Cl)s3)CC2)cc1
Beta-galactosidase
  IC50: > 80 µM (inactive)

## COC(=O)[C@]12C[C@H](CC(=O)NCC3CCCCC3)C(=O)N(CCC3=CCCCC3)C1=C[C@H](C(C)(C)C)O[C@@H]2C
[8]
  AC50: 3.68 µM (active)
[9]
  AC50: 21.5 µM (active)
[10]
  AC50: 3.66 µM (active)
[11]
  AC50: 3.6 µM (active)
[12]
  AC50: 2.45 µM (active)

## Cc1ccc(S(=O)(=O)N[C@H]2C=C[C@@H](CC(=O)N3CCC(Cc4ccccc4)CC3)O[C@H]2CO)cc1
[13]
  AC50: 14.2 µM (active)
HEK293 [14]
  AC50: 14.2 µM (active)

## COc1ccc(S(=O)(=O)N[C@H]2C=C[C@H](CC(=O)N3CCC(Cc4ccccc4)CC3)O[C@@H]2CO)cc1
[13]
  AC50: 9.52 µM (active)
HEK293 [14]
  AC50: 9.52 µM (active)

## C[C@H]1CCCCO[C@H](CN(C)Cc2ccc(C(F)(F)F)cc2)[C@@H](C)CN([C@@H](C)CO)C(=O)c2cc(NC(=O)c3ccccc3)ccc2O1
Paired box protein Pax-8
  AC50: 8.95 µM (active)
[15]
  AC50: 21.2 µM (active)
[16]
  AC50: 36.4 µM (active)

## C[C@@H]1CN([C@@H](C)CO)C(=O)c2cc(NC(=O)NC3CCCCC3)ccc2O[C@@H]1CN(C)C(=O)Nc1ccc2c(c1)OCO2
[17]
  AC50: 9.33 µM (active)

## C[C@H]1CN([C@@H](C)CO)S(=O)(=O)c2ccc(-c3ccccc3F)cc2O[C@@H]1CN(C)Cc1cccnc1
[18]
  AC50: 23 µM (active)

## Cc1cccc(-n2ncc(Cl)c(Cl)c2=O)c1
BJ [19]
  EC50: 1.02 µM (active)
[18]
  AC50: 2.27 µM (active)
[20]
  AC50: 40.7 µM (active)
[21]
  AC50: 27.5 µM (active)
[22]
  EC50: 5.17 µM (active)
[23]
  AC50: 8.05 µM (active)
[24]
  AC50: 8.69 µM (active)
[25]
  AC50: 12.4 µM (active)
BJ [26]
  EC50: 5.1 µM (inconclusive)
[27]
  AC50: 2.66 µM (active)
Paired box protein Pax-8
  AC50: 5.11 µM (active)
[28]
  AC50: 7.6 µM (active)
[29]
  AC50: 25.6 µM (active)
BJ [30]
  EC50: 0.556 µM (active)
[31]
  AC50: 5.8 µM (active)
[32]
  IC50: 5.33 µM (active)
[33]
  AC50: 20.4 µM (active)
HEK293 [34]
  AC50: 3.08 µM (active)
[35]
  AC50: 7.36 µM (active)
BJ [36]
  EC50: > 150 µM (inconclusive)

## COC(=O)Nc1nc2ccc(C(=O)C3CC3)cc2[nH]1 [CYCLOBENDAZOLE]
[6]
  IC50: > 67.5 µM (inactive)
[37]
  IC50: > 20 µM (inactive)
[38]
  IC50: > 20 µM (inactive)
[39]
  IC50: 0.416 µM (active)
[40]
  IC50: 0.174 µM (active)
[41]
  IC50: 1.68 µM (active)
[42]
  IC50: 0.417 µM (active)
[43]
  IC50: 0.156 µM (active)
cells
  IC50: > 67.5 µM (inactive)
[44]
  IC50: 0.162 µM (active)
